This is an account of results in publication PMC6892925, “Development of Novel Silyl Cyanocinnamic Acid Derivatives as Metabolic Plasticity Inhibitors for Cancer Treatment” (Scientific Reports, 2019).

“Also recorded” adds a separate entry of the source. Like-named read-outs stand apart in the source and are kept apart here.

Assay [1] relates to MCF7, 4T1, WiDr, and MDA-MB-231 cell lines. Kind of assay: MTT cell proliferation inhibition, all cell lines tested. It counts as cell-based. The following applies: for cell proliferation inhibition: concentrations up to 500 µM, solubility limit above (0.1% DMSO in growth media).
Procedure: (§1) Cell proliferation inhibition was evaluated using 3-(4,5-dimethylthiazol-2-yl)-2,5-diphenyl tetrazolium bromide (MTT) assay as reported previously[19].
The test system of assay [2] is MCF7 cell line. Kind of assay: MTT cell proliferation inhibition assay. The following applies: Homo sapiens, MCF7, read-out: MTT IC50.
Procedure: (§2) Human triple-negative breast cancer MDA-MB-231 cells (ATCC) were grown in DMEM supplemented with 10% FBS (Atlanta Biologicals) and penicillin-streptomycin (50U/ml, 50 µg/ml, Invitrogen). Human colorectal adenocarcinoma WiDr cells (ATCC) were cultured in MEM medium supplemented with 10% FBS and penicillin-streptomycin. […] Murine metastatic breast cancer 4T1 cells were grown in RPMI-1640 supplemented with 10% FBS and penicillin-streptomycin. Human estrogen receptor positive breast cancer MCF7 cells (Masonic Cancer Center, University of Minnesota) were grown in MEM supplemented with 6% FBS, EGF (0.01 µg/ml), NEAA, HDC (1 µg/ml), insulin (10 µg/ml), HEPES (12 mM) and sodium pyruvate (1 mM).
as §1
For assay [3], the system named is MDA-MB-231 cell line. The assay can be described thus: MTT cell proliferation inhibition assay. The following applies: Homo sapiens, MDA-MB-231, read-out: MTT IC50.
Procedure: as §2, §1
In assay [4] the test system is WiDr cell line. Kind of assay: MTT cell proliferation inhibition assay. The following applies: Homo sapiens, read-out: MTT IC50.
Procedure: as §2, §1
The target in assay [5] is T1, MCT1 (Rattus norvegicus, UniProt P53987).
T1 construct: using an L-[^14C]-lactate study on the MCT1 expressing RBE4 cell line; endogenous in cells; host or cells: RBE4 (rat brain endothelial 4) cells, a gift from F. Roux
T1 sequence (P53987 1-494): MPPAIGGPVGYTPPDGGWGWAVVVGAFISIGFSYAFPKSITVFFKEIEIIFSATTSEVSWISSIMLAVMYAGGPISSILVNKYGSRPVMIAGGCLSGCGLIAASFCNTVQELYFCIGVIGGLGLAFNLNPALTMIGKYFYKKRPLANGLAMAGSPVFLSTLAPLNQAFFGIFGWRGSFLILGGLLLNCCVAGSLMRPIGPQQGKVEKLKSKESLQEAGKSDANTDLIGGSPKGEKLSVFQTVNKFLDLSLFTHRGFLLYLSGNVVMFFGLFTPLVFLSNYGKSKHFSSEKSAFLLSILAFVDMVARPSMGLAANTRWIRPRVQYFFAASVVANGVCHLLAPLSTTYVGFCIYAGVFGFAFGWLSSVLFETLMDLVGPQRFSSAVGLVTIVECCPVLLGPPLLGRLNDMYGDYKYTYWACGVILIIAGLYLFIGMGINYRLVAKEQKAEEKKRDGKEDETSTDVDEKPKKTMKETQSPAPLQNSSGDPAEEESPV
Kind of assay: MCT1 inhibition assay via L-[14C]-lactate uptake in RBE4 cells. Type of assay: cell-based. The following applies: for MCT1 inhibition properties: at the concentrations tested, RBE4 cells.

In assay [6] the test system is 4T1 cell line. Kind of assay: MTT cell proliferation inhibition assay. The following applies: Mus musculus, 4T1, read-out: MTT IC50.
Procedure: as §2, §1
Assay [7] deals with WiDr cells. Kind of assay: Western blot analysis of cell damage and death markers. Type of assay: cell-based, human. The following applies: WiDr cultures treated with 2a plus NAC. How it is done:
Owing to the enhanced antiproliferative effects induced by test compound 2a when compared to CHC, western blot analysis of cell damage and death markers was performed. The master transcription factor p53 regulates the expression of numerous genes involved in cancer progression and is responsible for balancing proliferation and apoptosis. In this regard, we evaluated the effects of compound treatment on p53 expression. Literature reports indicate that MDA-MB-231 and WiDr cells express distinct homozygous mutant forms of p53 that promote an aggressive malignant phenotype with resistance to apoptosis[36],[37]. […] Further, PARP1 is involved in the DNA repair pathway through sensing DNA-strand breaks and recruiting repair enzymes. Importantly, PARP1 is a target of caspase cleavage under apoptotic conditions, and the appearance of the PARP1 cleavage product is a widely used indicator of cellular apoptosis. […] Additionally, DNA damage may be a downstream effect of apoptotic nuclease activity or an increase in reactive oxygen species (ROS) from damaged mitochondria; as illustrated in microscopy and seahorse experiments. Histone 2AX phosphorylation (γH2AX) resulting from DNA single- and double-strand breaks is a widely employed marker for DNA damage. In this regard, we investigated the effect of 2a on DNA damage marker γH2AX (phosphorylated Ser139, histone H2AX) with a phospho-specific antibody. […] Due to the potential of ROS leading to DNA damage and H2AX phosphorylation, we investigated the ability of antioxidant N-acetyl cysteine (NAC) to inhibit DNA damage of compound 2a as evidenced by H2AX phosphorylation in the highly oxidative cell line WiDr (Fig. 4A).
50,000 WiDr or MDA-MB-231 cells were seeded in 100 mm dishes and were incubated for 48 hours. Cells were then treated with test compounds for 24 hours, washed twice with 1X PBS, solubilized in 200 μL SDS boiling buffer (5% w/v SDS, 10% v/v glycerol, and 60 mM Tris pH 6.8), and sonicated. The resulting cell lysate was then assayed for protein using the Pierce BCA protocol. A volume of test sample containing 10 μg protein was loaded on SDS PAGE gel for electrophoresis according to manufacturer’s instructions. Proteins were transferred from the gel to nitrocellulose membrane according to the manufacturer’s instructions. Membranes were blocked for 1 hr at 35 °C using 10% (w/v) non-fat milk in PBST and were exposed to primary antibody. PARP1 (rabbit polyclonal IgG, Origene, TA321555), p53 (rabbit polyclonal IgG, Santa Cruz, sc50329), and γ-H2AX (Upstate 05-636, 1:2500) were detected and visualized using HRP chemiluminescence. For relative quantitation, β-actin (mouse monoclonal IgG C4, Millipore, MAB1501, 1:10,000) and GAPDH (mouse monoclonal IgG, Santa Cruz, sc47724, 1:100) were detected and measured as a control protein.
(A western blot detects proteins with antibodies after separation by electrophoresis.)

Setting [8] is: L-[14C]-lactate uptake, MCT1 expressing RBE4 cell line, average ± SEM of three separate experiments, read-out: MCT1 IC50.

`N#C/C(=C\c1ccc(OCCO)cc1)C(=O)O` [2c]: in assay [1], the cell proliferation inhibition result was “did not show significant cell proliferation inhibition; also recorded: did not exhibit any cell proliferation inhibition properties”. The half-inhibitory concentration (IC50) – broadly, the concentration needed to halve the response being measured – in assay [2] is more than 500 µM; in assay [3] it was more than 500 µM; in assay [4], more than 500 µM; in assay [5] (setting [8]), more than 5 µM; in assay [6], more than 500 µM. Also, the MCT1 inhibition properties entry in assay [5] is “did not exhibit MCT1 inhibition properties”.
Consider `N#C/C(=C\c1ccc(OCCBr)cc1)C(=O)O` [2d], for which the cell proliferation inhibition entry in assay [1] is “did not show significant cell proliferation inhibition; also recorded: did not exhibit any cell proliferation inhibition properties”. In addition, the IC50 in assay [2] is more than 500 µM; in assay [3], more than 500 µM; in assay [4] it was more than 500 µM; in assay [5] (setting [8]), more than 5 µM; in assay [6], more than 500 µM. Moreover, in assay [5], the MCT1 inhibition properties entry is “did not exhibit MCT1 inhibition properties”.
Regarding `N#CC(=Cc1ccc(O)cc1)C(=O)O` [CHC 1, α-cyano-4-hydroxycinnamic acid, reference compound], the IC50 in assay [1] (read-out: MTT IC50 values, span over all the cell lines tested) is 1100 to 5300 µM; in assay [2], 4000 ± 130 µM; in assay [3], 5300 ± 130 µM; in assay [4], 1100 ± 96 µM; in assay [5] it was more than 150 µM; in assay [6], 3600 ± 300 µM. Moreover, in assay [5] (lactate uptake assay, discussion statement), the “concentration at which MCT1 function is inhibited” value is given as not below 150 µM.
In the case of `CC(=O)N[C@@H](CS)C(=O)O` [NAC, N-acetyl cysteine, reference compound], in assay [7], the “effect on 2a-induced H2AX activation” value was “significantly reduced” and the “effect on 2a-induced PARP1 cleavage” value is given as “did not reverse PARP1 cleavage”.
